Assay results from patent US10278984B2, “Guanosine as an immune potentiator mediated through toll receptors” (Nitor Therapeutics, priority 2014, dated 2019).

Legend:
B16 tumors = test: Mouse melanoma model, NTR001 and cyclophosphamide; format: in vivo, C57BL/6 mice; details: cyclophosphamide 100 mg/kg IP single dose
Experimental: Method: Cancer cells were injected subcutaneously in right flank of each mouse, 1×10^4 cells in 0.1 ml PBS with 20% Matrigel. Treatment with the NTR001 was initiated on day 6 after injection of tumor cells. Tumor volume and survival were recorded every 3-4 days.

human TLR2 = target: T1, human TLR2 (Homo sapiens, UniProt O60603); test: TLR ligand screening: NF-κB SEAP reporter, agonist; format: cell-based; details: HEK293 cells expressing TLR2; guanosine 100 uM, NTR001 10 uM, inosine 100 uM; triplicate
T1 construct: expressed in transfected cells; host or cells: HEK293
T1 sequence (O60603 21-784): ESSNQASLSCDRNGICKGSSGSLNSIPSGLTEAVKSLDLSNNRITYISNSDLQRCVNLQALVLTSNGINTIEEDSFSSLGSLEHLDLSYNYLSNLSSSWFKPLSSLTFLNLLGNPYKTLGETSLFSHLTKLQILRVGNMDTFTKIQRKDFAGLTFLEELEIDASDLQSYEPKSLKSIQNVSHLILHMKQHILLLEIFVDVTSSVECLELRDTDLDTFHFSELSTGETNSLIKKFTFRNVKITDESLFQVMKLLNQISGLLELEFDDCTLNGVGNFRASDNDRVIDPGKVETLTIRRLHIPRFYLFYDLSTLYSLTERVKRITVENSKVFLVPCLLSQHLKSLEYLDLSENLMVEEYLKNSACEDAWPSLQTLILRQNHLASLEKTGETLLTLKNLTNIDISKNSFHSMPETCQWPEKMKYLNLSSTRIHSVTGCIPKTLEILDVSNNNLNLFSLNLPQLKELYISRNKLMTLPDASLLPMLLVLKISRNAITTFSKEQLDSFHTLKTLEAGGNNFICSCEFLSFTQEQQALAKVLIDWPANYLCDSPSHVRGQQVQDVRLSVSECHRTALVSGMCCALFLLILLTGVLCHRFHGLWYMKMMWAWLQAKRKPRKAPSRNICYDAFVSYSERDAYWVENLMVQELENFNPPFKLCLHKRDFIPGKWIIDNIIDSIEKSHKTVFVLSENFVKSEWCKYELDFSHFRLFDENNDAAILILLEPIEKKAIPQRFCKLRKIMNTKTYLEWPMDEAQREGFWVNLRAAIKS
Experimental: (§1) Method: TLR stimulation is tested by assessing NF-κB activation in HEK293 cells expressing a given TLR. The Secreted Embryonic Alkaline Phosphatase (SEAP) reporter is under the control of a promoter inducible by the transcription factor NF-κB. This reporter gene allows the monitoring of signaling through the TLR based on the activation of NF-κB. The activity of the compounds is tested on seven different human TLRs (TLR2, 3, 4, 5, 7, 8 and 9) as a potential agonist. The compounds are evaluated at one concentration and compared to control ligands. This step is performed in triplicate.

human TLR4 = target: T2, human TLR4 (Homo sapiens, UniProt O00206+Q9Y6Y9); test: TLR ligand screening: NF-κB SEAP reporter, agonist; format: cell-based; details: HEK293 cells expressing TLR4; guanosine 100 uM, NTR001 10 uM, inosine 100 uM; triplicate
T2 construct: expressed in transfected cells; host or cells: HEK293
T2 sequence (O00206 24-839): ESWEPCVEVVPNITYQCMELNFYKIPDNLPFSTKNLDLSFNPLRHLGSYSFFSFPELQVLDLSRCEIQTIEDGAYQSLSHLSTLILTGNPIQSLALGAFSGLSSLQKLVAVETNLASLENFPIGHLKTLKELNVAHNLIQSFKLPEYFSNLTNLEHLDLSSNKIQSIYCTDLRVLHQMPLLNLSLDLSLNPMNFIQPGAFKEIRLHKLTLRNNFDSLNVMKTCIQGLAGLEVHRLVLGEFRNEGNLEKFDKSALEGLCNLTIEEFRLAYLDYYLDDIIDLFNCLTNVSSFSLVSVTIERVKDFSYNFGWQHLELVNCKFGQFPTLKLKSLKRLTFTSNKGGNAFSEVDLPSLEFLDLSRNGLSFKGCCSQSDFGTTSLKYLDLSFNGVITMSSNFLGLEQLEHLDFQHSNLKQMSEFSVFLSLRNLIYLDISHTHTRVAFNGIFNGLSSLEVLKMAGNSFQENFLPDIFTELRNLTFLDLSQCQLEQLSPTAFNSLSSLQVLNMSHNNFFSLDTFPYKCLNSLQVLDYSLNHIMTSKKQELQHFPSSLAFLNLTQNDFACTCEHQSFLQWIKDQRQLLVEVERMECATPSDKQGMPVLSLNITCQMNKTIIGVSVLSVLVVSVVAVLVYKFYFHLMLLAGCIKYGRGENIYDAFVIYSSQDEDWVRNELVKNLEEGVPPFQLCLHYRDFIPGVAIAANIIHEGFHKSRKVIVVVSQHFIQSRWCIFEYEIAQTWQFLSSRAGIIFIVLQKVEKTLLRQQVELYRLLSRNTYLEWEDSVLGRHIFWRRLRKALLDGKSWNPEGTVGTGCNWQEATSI
T2 sequence (Q9Y6Y9 17-160 limits assumed): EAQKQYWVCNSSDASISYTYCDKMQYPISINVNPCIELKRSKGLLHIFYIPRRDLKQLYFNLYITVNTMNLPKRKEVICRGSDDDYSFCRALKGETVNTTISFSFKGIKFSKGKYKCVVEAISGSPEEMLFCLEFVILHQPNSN
Experimental: as §1

human TLR3 = target: T3, human TLR3 (Homo sapiens, UniProt O15455); test: TLR ligand screening: NF-κB SEAP reporter, agonist; format: cell-based; details: HEK293 cells expressing TLR3; NTR001 10 uM, inosine 100 uM
T3 construct: expressed in transfected cells; host or cells: HEK293
T3 sequence (O15455 24-904): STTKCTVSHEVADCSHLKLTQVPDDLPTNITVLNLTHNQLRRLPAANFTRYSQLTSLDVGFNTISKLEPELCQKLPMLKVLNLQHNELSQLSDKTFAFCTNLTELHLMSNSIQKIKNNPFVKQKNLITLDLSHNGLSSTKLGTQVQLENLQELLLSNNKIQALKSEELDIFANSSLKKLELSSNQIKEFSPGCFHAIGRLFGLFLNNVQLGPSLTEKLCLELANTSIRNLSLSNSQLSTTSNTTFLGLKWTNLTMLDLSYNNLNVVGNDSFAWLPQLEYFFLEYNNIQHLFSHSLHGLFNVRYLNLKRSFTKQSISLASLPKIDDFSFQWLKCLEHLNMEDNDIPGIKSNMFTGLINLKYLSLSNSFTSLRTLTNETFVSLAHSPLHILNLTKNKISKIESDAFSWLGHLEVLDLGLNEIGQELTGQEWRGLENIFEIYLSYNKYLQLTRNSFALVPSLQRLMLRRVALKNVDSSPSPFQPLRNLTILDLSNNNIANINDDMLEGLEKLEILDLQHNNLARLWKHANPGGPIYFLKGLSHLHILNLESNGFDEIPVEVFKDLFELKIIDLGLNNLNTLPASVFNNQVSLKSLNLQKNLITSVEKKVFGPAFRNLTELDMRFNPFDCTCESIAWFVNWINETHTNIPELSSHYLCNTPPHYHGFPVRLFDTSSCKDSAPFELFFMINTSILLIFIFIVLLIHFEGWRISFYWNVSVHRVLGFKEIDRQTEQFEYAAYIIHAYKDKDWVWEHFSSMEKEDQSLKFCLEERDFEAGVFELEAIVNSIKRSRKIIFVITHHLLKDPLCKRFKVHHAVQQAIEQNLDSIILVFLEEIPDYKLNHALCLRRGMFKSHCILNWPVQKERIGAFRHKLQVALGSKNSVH
Experimental: as §1

human TLR5 = target: T4, human TLR5 (Homo sapiens, UniProt O60602); test: TLR ligand screening: NF-κB SEAP reporter, agonist; format: cell-based; details: HEK293 cells expressing TLR5; NTR001 10 uM, inosine 100 uM
T4 construct: expressed in transfected cells; host or cells: HEK293
T4 sequence (O60602 21-858): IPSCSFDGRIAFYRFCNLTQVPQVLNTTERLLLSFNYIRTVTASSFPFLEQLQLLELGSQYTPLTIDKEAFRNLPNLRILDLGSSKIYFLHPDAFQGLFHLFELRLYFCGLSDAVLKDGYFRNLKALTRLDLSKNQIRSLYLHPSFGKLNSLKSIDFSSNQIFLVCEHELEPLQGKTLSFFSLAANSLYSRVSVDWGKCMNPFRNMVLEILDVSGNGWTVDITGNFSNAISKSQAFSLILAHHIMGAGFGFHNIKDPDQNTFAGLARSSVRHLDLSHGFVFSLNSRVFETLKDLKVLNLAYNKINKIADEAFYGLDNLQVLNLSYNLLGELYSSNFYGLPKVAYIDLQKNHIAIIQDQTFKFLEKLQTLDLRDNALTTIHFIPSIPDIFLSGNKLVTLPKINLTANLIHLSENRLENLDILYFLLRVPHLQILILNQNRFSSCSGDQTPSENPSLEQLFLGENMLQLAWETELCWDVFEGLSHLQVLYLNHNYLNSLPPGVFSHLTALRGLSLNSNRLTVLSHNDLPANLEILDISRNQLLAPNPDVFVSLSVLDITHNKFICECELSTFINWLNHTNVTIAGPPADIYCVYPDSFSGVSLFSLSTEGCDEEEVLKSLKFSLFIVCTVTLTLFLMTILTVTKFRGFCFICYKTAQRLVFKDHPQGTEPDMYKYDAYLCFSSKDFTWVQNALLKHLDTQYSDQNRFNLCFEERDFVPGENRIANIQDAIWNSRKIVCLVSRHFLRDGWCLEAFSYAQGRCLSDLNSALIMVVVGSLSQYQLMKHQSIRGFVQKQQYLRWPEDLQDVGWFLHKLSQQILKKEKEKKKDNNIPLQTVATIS
Experimental: as §1

human TLR7 = target: T5, human TLR7 (Homo sapiens, UniProt Q9NYK1); test: TLR ligand screening: NF-κB SEAP reporter, agonist; format: cell-based; details: HEK293 cells expressing TLR7; NTR001 10 uM, inosine 100 uM
T5 construct: expressed in transfected cells; host or cells: HEK293
T5 sequence (Q9NYK1 27-1049): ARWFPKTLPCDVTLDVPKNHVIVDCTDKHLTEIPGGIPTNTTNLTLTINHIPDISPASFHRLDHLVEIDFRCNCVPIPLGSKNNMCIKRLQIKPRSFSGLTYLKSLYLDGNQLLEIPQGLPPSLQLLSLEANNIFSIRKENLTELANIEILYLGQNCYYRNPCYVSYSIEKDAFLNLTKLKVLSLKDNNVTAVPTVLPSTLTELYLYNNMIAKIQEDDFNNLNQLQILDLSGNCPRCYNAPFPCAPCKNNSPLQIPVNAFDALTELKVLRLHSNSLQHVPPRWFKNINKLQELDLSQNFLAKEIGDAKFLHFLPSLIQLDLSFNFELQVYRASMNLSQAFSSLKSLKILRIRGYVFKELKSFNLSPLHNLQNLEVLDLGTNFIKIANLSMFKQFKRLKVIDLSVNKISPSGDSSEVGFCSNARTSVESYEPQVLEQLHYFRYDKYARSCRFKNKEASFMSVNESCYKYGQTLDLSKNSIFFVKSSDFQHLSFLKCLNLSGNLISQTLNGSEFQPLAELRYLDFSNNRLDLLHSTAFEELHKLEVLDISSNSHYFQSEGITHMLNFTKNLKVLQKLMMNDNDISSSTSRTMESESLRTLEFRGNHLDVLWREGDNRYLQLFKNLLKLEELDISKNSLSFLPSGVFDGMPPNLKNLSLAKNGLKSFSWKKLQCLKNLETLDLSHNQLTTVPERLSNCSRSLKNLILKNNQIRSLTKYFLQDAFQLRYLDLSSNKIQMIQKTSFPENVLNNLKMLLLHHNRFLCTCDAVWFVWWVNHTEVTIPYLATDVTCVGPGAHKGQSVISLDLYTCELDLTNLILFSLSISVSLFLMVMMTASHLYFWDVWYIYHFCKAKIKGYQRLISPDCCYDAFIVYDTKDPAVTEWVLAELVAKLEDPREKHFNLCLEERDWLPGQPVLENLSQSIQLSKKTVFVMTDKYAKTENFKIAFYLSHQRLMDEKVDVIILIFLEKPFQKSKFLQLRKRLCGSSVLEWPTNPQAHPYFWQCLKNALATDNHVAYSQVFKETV
Experimental: as §1

human TLR8 = target: T6, human TLR8 (Homo sapiens, UniProt Q9NR97); test: TLR ligand screening: NF-κB SEAP reporter, agonist; format: cell-based; details: HEK293 cells expressing TLR8; NTR001 10 uM, inosine 100 uM
T6 construct: expressed in transfected cells; host or cells: HEK293
T6 sequence (Q9NR97 27-1041): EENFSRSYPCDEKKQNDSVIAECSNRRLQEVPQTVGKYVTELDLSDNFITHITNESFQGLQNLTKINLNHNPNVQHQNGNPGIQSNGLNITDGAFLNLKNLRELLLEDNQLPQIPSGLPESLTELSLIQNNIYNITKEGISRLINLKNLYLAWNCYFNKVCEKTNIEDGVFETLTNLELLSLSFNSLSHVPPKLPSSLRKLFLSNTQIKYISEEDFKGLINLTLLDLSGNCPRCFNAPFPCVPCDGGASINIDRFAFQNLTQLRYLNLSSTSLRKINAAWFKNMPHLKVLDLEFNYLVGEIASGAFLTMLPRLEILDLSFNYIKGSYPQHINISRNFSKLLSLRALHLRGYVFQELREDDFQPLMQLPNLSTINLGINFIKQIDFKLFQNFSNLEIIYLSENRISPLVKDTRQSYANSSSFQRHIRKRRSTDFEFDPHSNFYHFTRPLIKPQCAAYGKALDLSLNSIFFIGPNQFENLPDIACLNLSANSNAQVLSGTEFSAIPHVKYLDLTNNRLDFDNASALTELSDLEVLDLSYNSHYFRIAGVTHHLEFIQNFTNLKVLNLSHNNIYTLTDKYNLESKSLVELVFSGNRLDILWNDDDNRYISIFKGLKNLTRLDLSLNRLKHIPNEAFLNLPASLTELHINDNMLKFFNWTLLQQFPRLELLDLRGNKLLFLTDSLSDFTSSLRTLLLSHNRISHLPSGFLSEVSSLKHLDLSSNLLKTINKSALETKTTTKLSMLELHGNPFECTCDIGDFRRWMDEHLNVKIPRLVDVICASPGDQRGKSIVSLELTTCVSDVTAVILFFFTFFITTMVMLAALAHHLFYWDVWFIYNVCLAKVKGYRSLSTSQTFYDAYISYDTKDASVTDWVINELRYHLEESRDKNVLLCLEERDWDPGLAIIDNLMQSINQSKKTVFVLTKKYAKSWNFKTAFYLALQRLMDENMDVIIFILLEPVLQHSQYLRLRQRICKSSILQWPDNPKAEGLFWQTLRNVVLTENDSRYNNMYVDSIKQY
Experimental: as §1

human TLR9 = target: T7, human TLR9 (Homo sapiens, UniProt Q9NR96); test: TLR ligand screening: NF-κB SEAP reporter, agonist; format: cell-based; details: HEK293 cells expressing TLR9; NTR001 10 uM, inosine 100 uM
T7 construct: expressed in transfected cells; host or cells: HEK293
T7 sequence (Q9NR96 26-1032): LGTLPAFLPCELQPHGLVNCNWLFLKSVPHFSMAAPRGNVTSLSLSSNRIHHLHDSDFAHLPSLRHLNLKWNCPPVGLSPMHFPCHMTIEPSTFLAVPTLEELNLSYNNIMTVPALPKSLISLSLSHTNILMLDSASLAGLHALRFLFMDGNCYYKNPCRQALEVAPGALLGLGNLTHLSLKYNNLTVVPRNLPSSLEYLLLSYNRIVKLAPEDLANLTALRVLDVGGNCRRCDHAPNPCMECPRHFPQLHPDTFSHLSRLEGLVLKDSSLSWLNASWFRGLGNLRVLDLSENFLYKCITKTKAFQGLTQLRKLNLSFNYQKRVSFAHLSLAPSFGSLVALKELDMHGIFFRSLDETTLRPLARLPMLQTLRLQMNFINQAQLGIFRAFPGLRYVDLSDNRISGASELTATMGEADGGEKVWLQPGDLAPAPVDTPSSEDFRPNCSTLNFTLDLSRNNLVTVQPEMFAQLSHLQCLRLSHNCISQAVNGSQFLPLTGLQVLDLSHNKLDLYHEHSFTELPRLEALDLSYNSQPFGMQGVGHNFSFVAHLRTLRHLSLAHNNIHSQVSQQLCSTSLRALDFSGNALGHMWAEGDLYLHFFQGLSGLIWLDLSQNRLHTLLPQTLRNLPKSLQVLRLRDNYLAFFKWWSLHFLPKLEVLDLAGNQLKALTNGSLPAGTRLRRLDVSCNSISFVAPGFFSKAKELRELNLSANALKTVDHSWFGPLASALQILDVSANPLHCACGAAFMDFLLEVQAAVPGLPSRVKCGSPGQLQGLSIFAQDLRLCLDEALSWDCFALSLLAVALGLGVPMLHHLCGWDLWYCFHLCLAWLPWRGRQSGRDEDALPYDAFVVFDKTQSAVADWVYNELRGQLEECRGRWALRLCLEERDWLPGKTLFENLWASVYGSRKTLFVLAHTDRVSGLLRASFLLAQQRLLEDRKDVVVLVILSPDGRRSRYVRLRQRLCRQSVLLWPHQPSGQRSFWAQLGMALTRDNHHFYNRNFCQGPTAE
Experimental: as §1

SMILES	survival (B16 tumors) [%]	stimulatory effect on human TLR2 (NF-κB activation) (human TLR2)	stimulatory effect on human TLR4 (NF-κB activation) (human TLR4)	stimulatory effect on human TLR3 (NF-κB activation) (human TLR3)	stimulatory effect on human TLR5 (NF-κB activation) (human TLR5)	stimulatory effect on human TLR7 (NF-κB activation) (human TLR7)	stimulatory effect on human TLR8 (NF-κB activation) (human TLR8)	stimulatory effect on human TLR9 (NF-κB activation) (human TLR9)
O=P1(N(CCCl)CCCl)NCCCO1 (stereo not shown) [Cyclcophosphamide, Cyclophosphamide]	30	–	–	–	–	–	–	–
Nc1nc2c(ncn2[C@@H]2O[C@H](CO)[C@@H](O)[C@H]2O)c(=O)[nH]1 [Guansoine, guanosine]	–	significant stimulatory effect	significant stimulatory effect	–	–	–	–	–
OC[C@H]1O[C@@H](n2cnc3c(O)ncnc32)[C@H](O)[C@@H]1O [Inosine]	–	do not directly exhibit a stimulatory effect	do not directly exhibit a stimulatory effect	do not directly exhibit a stimulatory effect	do not directly exhibit a stimulatory effect	do not directly exhibit a stimulatory effect	do not directly exhibit a stimulatory effect	do not directly exhibit a stimulatory effect
